# Source: US20090197843A1, “Treatment of Prevention of Unscheduled Bleeding in Women on Progestogen Containing Medication” (PANTARHEI BIOSCIENCE B.V., priority 2004, published 2009)
# Experiments:
# Assay type in all cases: in vivo
# [1] = test system: healthy postmenopausal women; experiment: Clinical study: continuous combined HRT (estradiol/drosperinone) with or without captopril; conditions: 15 mg captopril with continuous combined HRT (1 mg estradiol, 2 mg drosperinone), three periods of 28 days; vs HRT preparation alone
# Protocol: A clinical study is conducted in 50 healthy postmenopausal women, postmenopausal being defined as having had the last menstrual period at least 6 months before along with an increased FSH serum level. Two groups of 25 women who are not using any HRT are enrolled. All subjects receive a continuous combined HRT preparation containing 1 mg estradiol and 2 mg drosperinone for three periods of 28 days each. […] Subjects document any unscheduled vaginal bleeding (spotting, breakthrough bleeding) in a diary. Blood pressure is monitored intensively.
# [2] = test system: healthy women of childbearing age; experiment: Clinical study: low-dose oral contraceptive (30 μg ethinylestradiol/100 μg levonorgestrel) with or without enalapril; conditions: 5 mg enalapril with oral contraceptive (30 μg ethinylestradiol, 100 μg levonorgestrel), 84 days; vs oral contraceptive alone
# Protocol: A clinical study is conducted in 50 healthy women of childbearing age. Two groups of 25 women who are not using oral contraception, ‘pill starters’, are enrolled. All subjects receive a low-dose oral contraceptive containing 30 μg ethinylestradiol and 100 μg levonorgestrel for 84 days. Twenty-five (25) subjects are randomized to additionally receive 5 mg enalapril as an ACE-inhibitor with the oral contraceptive during the entire study period. All subjects document any unscheduled vaginal bleeding (spotting, breakthrough bleeding) in a diary. Blood pressure is monitored intensively.
# [3] = test system: healthy women of childbearing age; experiment: Clinical study: contraceptive implant (68 mg etonogestrel) with or without irbesartan; conditions: 75 mg irbesartan, 6 months, with implant containing 68 mg etonogestrel; vs contraceptive implant alone
# Protocol: A clinical study is conducted in 40 healthy women of childbearing age. Two groups of 20 women are enrolled. All subjects receive an implant containing 68 mg etonogestrel. Twenty (20) subjects are randomized to additionally receive 75 mg irbesartan as an angiotensin II-receptor antagonist concomitantly with the contraceptive implant during the entire study period of 6 months. All subjects document any unscheduled vaginal bleeding (spotting, breakthrough bleeding) in a diary. Blood pressure is monitored intensively.
# [4] = test system: healthy postmenopausal women; experiment: Clinical study: continuous combined HRT (estradiol/norethisterone acetate) with or without irbesartan; conditions: 50 mg irbesartan with continuous combined HRT (2 mg estradiol, 1 mg norethisterone acetate), 84 days; vs HRT preparation alone
# Protocol: (§1) A clinical study is conducted in 40 healthy postmenopausal women, postmenopausal being defined as having had the last menstrual period at least 6 months before along with an increased FSH serum level. Two groups of 20 women who are not using any HRT are enrolled. All subjects receive a continuous combined HRT preparation containing 2 mg estradiol and 1 mg norethisterone acetate for 84 days. Twenty (20) subjects are randomized to additionally receive 50 mg irbesartan as an angiotensin II-receptor antagonist concomitantly with the HRT preparation during the entire study period. Subjects document any unscheduled vaginal bleeding (spotting, breakthrough bleeding) in a diary. Blood pressure is monitored intensively.
# [5] = test system: healthy postmenopausal women; experiment: Clinical study: sequentially combined HRT (estradiol/dydrogesterone) with or without irbesartan; conditions: 75 mg irbesartan with sequentially combined HRT (2 mg estradiol, 10 mg dydrogesterone), 3 cycles of 28 days; vs HRT preparation alone
# Protocol: as §1, with “sequentially” for “continuous”, “for 3 cycles of 28 days each. One cycle comprises 14 days of” for “containing”, “only followed by 14 days of 2” for “and 1”, “estradiol” for “norethisterone acetate”, “14 days combined with 10 mg dydrogesterone.” for “84 days.”, “75” for “50”
# [6] = test system: healthy women of childbearing age; experiment: Clinical study: low-dose oral contraceptive (20 μg ethinylestradiol/100 μg levonorgestrel) with or without irbesartan; conditions: 75 mg irbesartan with oral contraceptive (20 μg ethinylestradiol, 100 μg levonorgestrel), 84 days; vs oral contraceptive alone
# Protocol: A clinical study is conducted in 40 healthy women of childbearing age. Two groups of 20 women who are not using oral contraception, ‘pill starters’, are enrolled. All subjects receive a low-dose oral contraceptive containing 20 μg ethinylestradiol and 100 μg levonorgestrel for 84 days. Twenty (20) subjects are randomized to additionally receive 75 mg irbesartan as an angiotensin II-receptor antagonist concomitantly with the oral contraceptive during the entire study period. All subjects document any unscheduled vaginal bleeding (spotting, breakthrough bleeding) in a diary. Blood pressure is monitored intensively.
# [7] = test system: healthy women of childbearing age; experiment: Clinical study: contraceptive injections (150 mg medroxyprogesterone acetate) with or without irbesartan; conditions: daily 75 mg irbesartan, 6 months, with two injections of 150 mg medroxyprogesterone acetate; vs contraceptive injection alone
# Protocol: A clinical study is conducted in 40 healthy women of childbearing age. Two groups of 20 women are enrolled. All subjects receive two contraceptive injections containing 150 mg medroxyprogesterone acetate each with an interval of 3 months (13 weeks). Twenty (20) subjects are randomized to additionally receive daily 75 mg irbesartan as an angiotensin II-receptor antagonist during the entire study period of 6 months. All subjects document any unscheduled vaginal bleeding (spotting, breakthrough bleeding) in a diary. Blood pressure is monitored intensively.
# [8] = test system: healthy women of childbearing age; experiment: Clinical study: progestogen-only oral contraceptive (75 μg desogestrel) with or without irbesartan; conditions: 50 mg irbesartan with progestogen-only oral contraceptive (75 μg desogestrel), 84 days; vs oral contraceptive alone
# Protocol: A clinical study is conducted in 40 healthy women of childbearing age. Two groups of 20 women who are not using oral contraception, ‘pill starters’, are enrolled. All subjects receive a progestogen-only oral contraceptive containing 75 μg desogestrel for 84 days. Twenty (20) subjects are randomized to additionally receive 50 mg irbesartan as an angiotensin II-receptor antagonist concomitantly with the oral contraceptive during the entire study period. All subjects document any unscheduled vaginal bleeding (spotting, breakthrough bleeding) in a diary. Blood pressure is monitored intensively.
structure (smiles),measurement,setting,value
C[C@H](CS)C(=O)N1CCC[C@H]1C(=O)O [captopril],Efficacy between groups,[1],do not differ significantly
same,episodes of unscheduled bleeding,[1],fewer episodes of unscheduled bleeding
same,overall safety profile,[1],comparable to that of the group receiving the HRT preparation alone
CCOC(=O)[C@H](CCc1ccccc1)N[C@@H](C)C(=O)N1CCC[C@H]1C(=O)O [enalapril],blood pressure pattern between groups,[2],does not differ significantly
same,episodes of unscheduled bleeding,[2],fewer episodes of unscheduled bleeding
same,intensity of blood loss,[2],"less intense blood loss, if any"
same,overall safety profile,[2],comparable to that of the group receiving the oral contraceptive alone
CCCCC1=NC2(CCCC2)C(=O)N1Cc1ccc(-c2ccccc2-c2nnn[nH]2)cc1 [irbesartan],blood pressure pattern between groups,[3],does not differ significantly
same,episodes of unscheduled bleeding,[3],fewer episodes of unscheduled bleeding
same,intensity of blood loss,[3],"less intense blood loss, if any"
same,overall safety profile,[3],comparable to that of the group receiving the contraceptive implant alone
same,Efficacy between groups,[4],do not differ significantly
same,blood pressure pattern between groups,[4],do not differ significantly
same,episodes of unscheduled bleeding,[4],fewer episodes of unscheduled bleeding
same,intensity of blood loss,[4],"less intense blood loss, if any"
same,overall safety profile,[4],comparable to that of the group receiving the HRT preparation alone
same,Efficacy between groups,[5],do not differ
same,blood pressure pattern between groups,[5],do not differ
same,episodes of unscheduled bleeding,[5],fewer episodes of unscheduled bleeding
same,intensity of blood loss,[5],"less intense blood loss, if any"
same,overall safety profile,[5],comparable to that of the group receiving the HRT preparation alone
same,blood pressure pattern between groups,[6],does not differ significantly
same,episodes of unscheduled bleeding,[6],fewer episodes of unscheduled bleeding
same,intensity of blood loss,[6],"less intense blood loss, if any"
same,overall safety profile,[6],comparable to that of the group receiving the oral contraceptive alone
same,blood pressure pattern between groups,[7],does not differ significantly
same,episodes of unscheduled bleeding,[7],fewer episodes of unscheduled bleeding
same,intensity of blood loss,[7],"less intense blood loss, if any"
same,overall safety profile,[7],comparable to that of the group receiving the contraceptive injection alone
same,blood pressure pattern between groups,[8],does not differ significantly
same,episodes of unscheduled bleeding,[8],fewer episodes of unscheduled bleeding
same,intensity of blood loss,[8],"less intense blood loss, if any"
same,overall safety profile,[8],comparable to that of the group receiving the oral contraceptive alone
